Experimental data: patent publication US11965038B2, “Pharmaceutical composition comprising antibody binding specifically to lysyl-tRNA synthetase N-terminus as effective ingredient for preventing or treating immune cell migration-related disease” (Zymedi Co., Ltd., priority 2017, dated 2024)

What was measured:
[1] = test system: RAW 264.7 cells; test: Transwell migration assay with extracellular matrix proteins and laminin subtypes; assay type: cell-based
Experimental: In the extracellular matrix (ECM) that make up the blood vessels, it was identified which promotes the migration and invasion of monocytes/macrophages. Transwell migration assay was performed using collagen (collagen, Col), fibronectin (FN) and laminin (LN) as extracellular matrix. The specific experimental method is as follows. After transwells (Corning, #3421-5 mm) were coated with gelatin (0.5 mg/ml), RAW 264.7 cells (1×10^5 cells/well) were seeded into the top chamber. Fibronectin or Collagen was placed in the bottom chamber. Serum Free DMEM (500 μl) containing 10 μg/ml of Laminin (laminin mixture, Biolamina), Fibronectin or Collagen, respectively, was placed in the bottom chamber. After 24 hours, the cells were treated with 70% methanol for 30 minutes and fixed, and then stained with 50% Hematoxylin for 30 minutes. After removing non-migrating cells from the top of the membrane with a cotton swab, the membrane was taken and mounted on the slide. The migrating cells on the underside of the membrane were observed and quantified under a high magnification microscope.
The effects of laminin subtypes on immune cell migration and invasion were evaluated. A transwell cell migration assay was performed in the same manner as in the Example 1 using LN111, LN211, LN221, LN411, LN421, LN511, and LN521 at 1 μg/ml as various laminin subtype proteins (purchased from Biolamina). […]

[2] = test system: KRS; test: Western blotting of KRS in cytosol and membrane fractions after LN421 treatment; assay type: cell-based; conditions: 1 μg/ml LN421, 0 h, 12 h, 24 h
Experimental: After seeding RAW 264.7 cells (2×10^6 cells) in 100 pie plate and incubating for 18 hr, the serum free-DMEM media was treated with 1 μg/ml LN421 and the cells were harvested at 0 h, 12 h, and 24 h. RAW 264.7 cell proteins were separated into cytosol and membrane fractions using the ProteoExtract® Subcellular Proteome Extraction Kit (Calbiotech, cat #539790). The obtained protein was subjected to electrophoresis, transferred to PVDF membrane (Millipore) and blocked with 3% skim milk. KRS was then detected by the western blotting. Specifically, KRS polyclonal antibody (rabbit, Neomics, Co. Ltd. #NMS-01-0005) was added to bind for 1 hour. Unbound antibody was removed and then anti-rabbit secondary antibody (Thermo Fisher Scientific, #31460) was added. After reacting with the secondary antibody, the film was developed in the dark room using ECL reagent as a substrate. The detected bands were compared to standard molecular markers to identify the bands corresponding to the size of the KRS. Antibodies against Na+/K+ATPase (Abcam, ab76020) and tubulin (Santa cruz SC-5286) were used to identify plasma membrane and cytosol markers, respectively.

[3] = test system: migration and invasion of immune cells; conditions: ear skin wound models, liver ischemia-reperfusion injury models; from Korean applications 10-2017-0076718 and 10-2018-0069146; cited from earlier work
[4] = test system: pulmonary arterial hypertension (PAH) models; test: Echocardiography in MCT-induced PAH model; assay type: in vivo, SD rats; conditions: PAH rats, MCT alone: three animals
Source text: (§1) To induce PAH in 7-week-old SD rats (Oriental Bio), 60 mpk of MCT (monocrotaline) were subcutaneously injected.

[5] = Body weight change in MCT-induced PAH model; assay type: in vivo, SD rats; conditions: sildenafil 25 mpk, n = 5
Source text: as §1

LN421: laminin subtype α4β2γ1, purchased from Biolamina
migration of monocytes/macrophages by laminin subtype ([1]; laminin subtypes at 1 μg/ml): specifically move in response | amount of KRS detected in the cell membrane region [2]: increased

COc1ccc(CCN(Cc2ccc(C(=O)O)cc2)c2nc3cccc(F)c3s2)cc1 [BC-KI-00053, 4-({(7-fluorobenzo [d]thiazol-2-yl) [2-(4-methoxyphenyl)ethyl]amino}methyl) benzoic acid]
migration and invasion of immune cells [3]: inhibited

laminin
migration of monocytes/macrophages ([1]; collagen, fibronectin or laminin mixture 10 μg/ml in bottom chamber, 24 hours): most strongly promotes

CCCc1nn(C)c2c(=O)[nH]c(-c3cc(S(=O)(=O)N4CCN(C)CC4)ccc3OCC)nc12 [Sildenafil, sildenafil]
D-shaped left ventricle finding indicating pressure overload in the right ventricle [4]: three animals | Relative change (weight) ([5]; MCT + Mock IgG 48.8 ± 7.8): 49.8 ± 10.5% | Absolute change (weight) ([5]; MCT + Mock IgG 101.4 ± 14.2): 104.1 ± 26.4 g
